The record followed here is US20240252488A1 (KOREA RESEARCH INSTITUTE OF CHEMICAL TECHNOLOGY, priority 2020, published 2024).

Molecules are shown by their SMILES.

The target of experiment [1] is T1, MLKL (Homo sapiens, UniProt Q8NB16).
T1 sequence (Q8NB16 1-471): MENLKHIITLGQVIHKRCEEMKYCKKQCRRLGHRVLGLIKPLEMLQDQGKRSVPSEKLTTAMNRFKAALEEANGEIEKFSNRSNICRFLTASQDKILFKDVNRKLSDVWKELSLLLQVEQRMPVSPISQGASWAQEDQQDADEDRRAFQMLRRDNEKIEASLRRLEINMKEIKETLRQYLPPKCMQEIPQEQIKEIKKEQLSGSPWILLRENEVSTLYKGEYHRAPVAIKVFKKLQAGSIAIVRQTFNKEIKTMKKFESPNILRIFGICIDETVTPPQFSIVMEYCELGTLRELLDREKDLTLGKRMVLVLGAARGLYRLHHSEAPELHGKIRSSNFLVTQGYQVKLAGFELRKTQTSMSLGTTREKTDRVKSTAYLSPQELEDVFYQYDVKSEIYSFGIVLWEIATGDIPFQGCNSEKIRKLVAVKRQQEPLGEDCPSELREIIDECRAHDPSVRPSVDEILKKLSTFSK
The experiment in a line: MLKL degradation assay in HepG2 cell line (western blot). The note with it: cell line not given; for Degradation assay (Degradation %) 1 μM: compound 1 μM; for Degradation assay (Degradation %) 10 μM: compound 10 μM. The format is cell-based. Set-up: endogenous in cells; host or cells: HepG2 or HaCaT. The method in brief:
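Chemiluminescent western blot signal reports remaining MLKL protein in HepG2 cells after 20-24 h treatment with compound at a final 1 or 10 μM. Equal protein (10-15 μg, BCA) is loaded per lane.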

A further experiment concerns FADD−/− Jurkat cells. The experiment in a line: Necroptosis inhibition assay, TNF-α-induced necroptosis (CellTiter-Glo 2.0). The class given is cell-based, human. The note with it: TNF-α 15 ng/mL; for Necroptosis inhibition assay (Rescue %) 1 μM: compound 1 μM; for Necroptosis inhibition assay (Rescue %) 10 μM: compound 10 μM. In short, it runs like this: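 Compound is added to cells at final concentrations of 0.1, 1 and 10 μM and left 30 minutes at room temperature. Necroptosis is induced with 15 ng/mL TNF-α, culture continues 20 to 24 hours at 37° C, and ATP-based luminescence reports viability.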

The target of experiment [2] is T1, MLKL. The experiment in a line: Measurement of binding affinity with MLKL receptor (competitive binding assay, Kd). More on the design: made in house; host or cells: HEK 293 cell line (T7 phage in E. coli BL21-derived host is also described). In short, it runs like this: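 qPCR of MLKL eluted from liganded beads served as the read-out, from which Kd was derived. The protein was made in HEK 293 cells with a DNA tag, and test compounds competed with the bead-bound ligand at 0.9% final DMSO.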

As for `Nc1ncc(-c2cnn(C3CCN(CCC4CCN(C(=O)CCc5cccc6c5CN(C5CCC(=O)NC5=O)C6=O)CC4)CC3)c2)nc1C(=O)O[C@@H](C(=O)Nc1ccc(F)cc1)c1ccccc1` (stereo partly drawn) [TDH-385, (R)-2-((4-fluorophenyl)amino)-2-oxo-1-phenylethyl 3-amino-6-(1-(1-(2-(1-(3-(2-(2,6-dioxopiperidin-3-yl)-1-oxoisoindolin-4-yl)propanoyl)piperidin-4-yl)ethyl)piperidin-4-yl)-1H-pyrazol-4-yl)pyrazine-2-carboxylate], at MLKL [1], the “Degradation assay (Degradation %) 1 μM” value stood at 94.85% and the “Degradation assay (Degradation %) 10 μM” value amounted to 85.11%. In addition, in the experiment on FADD−/− Jurkat cells, the “Necroptosis inhibition assay (Rescue %) 1 μM” value came to 53.62% and the “Necroptosis inhibition assay (Rescue %) 10 μM” value is 14.09%. The Kd on MLKL [2] was 0.76 nM.
Regarding `Nc1ncc(-c2cnn([C@@H]3CCN(CC4CCN(C(=O)COc5cccc6c5C(=O)N(C5CCC(=O)NC5=O)C6=O)CC4)C3)c2)nc1C(=O)OC(C(=O)Nc1ccc(F)cc1)c1ccccc1` (stereo partly drawn) [TDH-287, 2-((4-fluorophenyl)amino)-2-oxo-1-phenylethyl 3-amino-6-(1-((3R)-1-((1-(2-((2-(2,6-dioxopiperidin-3-yl)-1,3-dioxoisoindolin-4-yl)oxy)acetyl)piperidin-4-yl)methyl)pyrrolidin-3-yl)-1H-pyrazol-4-yl)pyrazine-2-carboxylate], on MLKL [1], the “Degradation assay (Degradation %) 1 μM” value stood at 75.04% and the “Degradation assay (Degradation %) 10 μM” value is 65.94%. In addition, in the experiment with FADD−/− Jurkat cells, the “Necroptosis inhibition assay (Rescue %) 1 μM” value was 71.05% and the “Necroptosis inhibition assay (Rescue %) 10 μM” value amounted to 72.7%. At MLKL [2], binding was put at a Kd of 3.7 nM.
Regarding `Nc1ncc(-c2cnn(C3CCN(CCCN4CCN(C(=O)CCc5cccc6c5CN(C5CCC(=O)NC5=O)C6=O)CC4)CC3)c2)nc1C(=O)O[C@@H](C(=O)Nc1ccc(F)cc1)c1ccccc1` (stereo partly drawn) [TDH-386, (R)-2-((4-fluorophenyl)amino)-2-oxo-1-phenylethyl 3-amino-6-(1-(1-(3-(4-(3-(2-(2,6-dioxopiperidin-3-yl)-1-oxoisoindolin-4-yl)propanoyl)piperazin-1-yl)propyl)piperidin-4-yl)-1H-pyrazol-4-yl)pyrazine-2-carboxylate], at MLKL [1], the “Degradation assay (Degradation %) 1 μM” value is 79.68% and the “Degradation assay (Degradation %) 10 μM” value is listed as 71.14%. For the same molecule, in the experiment with FADD−/− Jurkat cells, the “Necroptosis inhibition assay (Rescue %) 1 μM” value is 34.89% and the “Necroptosis inhibition assay (Rescue %) 10 μM” value is reported as 20.76%. On MLKL [2], this molecule returned a Kd of 0.93 nM.
Consider `COc1ccc(C(=O)N2CCC(CN3CCC(n4cc(-c5cnc(N)c(C(=O)O[C@@H](C(=O)Nc6ccc(F)cc6)c6ccccc6)n5)cn4)CC3)CC2)cc1N1CCC(=O)NC1=O` [TDH-445, (R)-2-((4-fluorophenyl)amino)-2-oxo-1-phenylethyl 3-amino-6-(1-(1-((1-(3-(2,4-dioxotetrahydropyrimidin-1(2H)-yl)-4-methoxybenzoyl)piperidin-4-yl)methyl)piperidin-4-yl)-1H-pyrazol-4-yl)pyrazine-2-carboxylate], for which, on MLKL [1], the “Degradation assay (Degradation %) 1 μM” value came to 20.29% and the “Degradation assay (Degradation %) 10 μM” value was determined as 27.38%. Besides, in the experiment on FADD−/− Jurkat cells (FADD−/− Jurkat cells), the “Necroptosis inhibition assay (Rescue %) 1 μM” value is on record as 12.07% and the “Necroptosis inhibition assay (Rescue %) 10 μM” value was found to be 19.83%. On MLKL [2], binding was put at a Kd of 0.6 nM.
With `Nc1ncc(-c2cnn(C3CCN(CC4CCN(C(=O)CNc5ccc6nnn(C7CCC(=O)NC7=O)c(=O)c6c5)CC4)CC3)c2)nc1C(=O)O[C@@H](C(=O)Nc1ccc(F)cc1)c1ccccc1` (stereo partly drawn) [TDH-152, (R)-2-((4-fluorophenyl)amino)-2-oxo-1-phenylethyl 3-amino-6-(1-(1-((1-((3-(2,6-dioxopiperidin-3-yl)-4-oxo-3,4-dihydrobenzo[d][1,2,3]triazin-6-yl)glycyl)piperidin-4-yl)methyl)piperidin-4-yl)-1H-pyrazol-4-yl)pyrazine-2-carboxylate], at MLKL [1], the “Degradation assay (Degradation %) 1 μM” value is 51.96% and the “Degradation assay (Degradation %) 10 μM” value was found to be 35.05%. Also, in the experiment with FADD−/− Jurkat cells, the “Necroptosis inhibition assay (Rescue %) 1 μM” value was 63.2% and the “Necroptosis inhibition assay (Rescue %) 10 μM” value amounted to 41.21%. The molecule also had a Kd on MLKL [2] of 2.7 nM.
Take `Nc1ncc(-c2cnn(C3CCN(C[C@H]4CC[C@H](CNC(=O)Cc5cccc(NC6=CC(=O)N(C7CCC(=O)NC7=O)C6=O)c5)CC4)CC3)c2)nc1C(=O)O[C@@H](C(=O)Nc1ccc(F)cc1)c1ccccc1` (stereo partly drawn) [TDH-498, (R)-2-((4-fluorophenyl)amino)-2-oxo-1-phenylethyl 3-amino-6-(1-(1-(((1r,4r)-4-((2-(3-((1-(2,6-dioxopiperidin-3-yl)-2,5-dioxo-2,5-dihydro-1H-pyrrol-3-yl)amino)phenyl)acetamido)methyl)cyclohexyl)methyl)piperidin-4-yl)-1H-pyrazol-4-yl)pyrazine-2-carboxylate]: on MLKL [1], the “Degradation assay (Degradation %) 1 μM” value turned out to be 86.68% and the “Degradation assay (Degradation %) 10 μM” value amounted to 89.27%. In addition, in the experiment with FADD−/− Jurkat cells (FADD−/− Jurkat cells), the “Necroptosis inhibition assay (Rescue %) 1 μM” value is 23.9% and the “Necroptosis inhibition assay (Rescue %) 10 μM” value amounted to 16.6%. The molecule also returned a Kd at MLKL [2] of 3.7 nM.
Turning to `Nc1ncc(-c2cnn(C3CCN(CCC4CCN(C(=O)CCc5cccc6c5C(=O)N(C5CCC(=O)NC5=O)C6=O)CC4)CC3)c2)nc1C(=O)O[C@@H](C(=O)Nc1ccc(F)cc1)c1ccccc1` (stereo partly drawn) [TDH-376, (R)-2-((4-fluorophenyl)amino)-2-oxo-1-phenylethyl 3-amino-6-(1-(1-(2-(1-(3-(2-(2,6-dioxopiperidin-3-yl)-1,3-dioxoisoindolin-4-yl)propanoyl)piperidin-4-yl)ethyl)piperidin-4-yl)-1H-pyrazol-4-yl)pyrazine-2-carboxylate], at MLKL [1], the “Degradation assay (Degradation %) 1 μM” value is 93.13% and the “Degradation assay (Degradation %) 10 μM” value is listed as 86.31%. Also, in the experiment on FADD−/− Jurkat cells, the “Necroptosis inhibition assay (Rescue %) 1 μM” value came to 76.20% and the “Necroptosis inhibition assay (Rescue %) 10 μM” value was 30.33%. In addition, on MLKL [2], the dissociation constant (Kd) is 0.54 nM.
Regarding `Nc1ncc(-c2cnn(C3CCN(CCCC4CCN(C(=O)CNc5ccc6c(c5)C(=O)N(C5CCC(=O)NC5=O)C6=O)CC4)CC3)c2)nc1C(=O)O[C@@H](C(=O)Nc1ccc(F)cc1)c1ccccc1` (stereo partly drawn) [TDH-483, (R)-2-((4-fluorophenyl)amino)-2-oxo-1-phenylethyl 3-amino-6-(1-(1-(3-(1-((2-(2,6-dioxopiperidin-3-yl)-1,3-dioxoisoindolin-5-yl)glycyl)piperidin-4-yl)propyl)piperidin-4-yl)-1H-pyrazol-4-yl)pyrazine-2-carboxylate], on MLKL [1], the “Degradation assay (Degradation %) 1 μM” value was 86.34% and the “Degradation assay (Degradation %) 10 μM” value was 84.54%. In the experiment with FADD−/− Jurkat cells (FADD−/− Jurkat cells), the “Necroptosis inhibition assay (Rescue %) 1 μM” value was determined as 62.95% and the “Necroptosis inhibition assay (Rescue %) 10 μM” value is 37.9%. Also, the Kd on MLKL [2] was 2.5 nM.
As for `Nc1ncc(-c2cnn(C3CCN(CCC4CCN(c5ccc6c(c5)C(=O)N(C5CCC(=O)NC5=O)C6=O)CC4)CC3)c2)nc1C(=O)O[C@@H](C(=O)Nc1ccc(F)cc1)c1ccccc1` (stereo partly drawn) [TDH-203, (R)-2-((4-fluorophenyl)amino)-2-oxo-1-phenylethyl 3-amino-6-(1-(1-(2-(1-(2-(2,6-dioxopiperidin-3-yl)-1,3-dioxoisoindolin-5-yl)piperidin-4-yl)ethyl)piperidin-4-yl)-1H-pyrazol-4-yl)pyrazine-2-carboxylate], at MLKL [1], the “Degradation assay (Degradation %) 1 μM” value stood at 61.41% and the “Degradation assay (Degradation %) 10 μM” value is reported as 34.74%. In addition, in the experiment with FADD−/− Jurkat cells, the “Necroptosis inhibition assay (Rescue %) 1 μM” value is 64.32% and the “Necroptosis inhibition assay (Rescue %) 10 μM” value was found to be 40.46%. Further, the Kd on MLKL [2] came to 3.2 nM.
The matching figures for `Nc1ncc(-c2cnn(C3CCN(CCCCCCNC(=O)COc4cccc5c4C(=O)N(C4CCC(=O)NC4=O)C5=O)CC3)c2)nc1C(=O)O[C@@H](C(=O)Nc1ccc(F)cc1)c1ccccc1` (stereo partly drawn) [TDH-133, (R)-2-((4-fluorophenyl)amino)-2-oxo-1-phenylethyl 3-amino-6-(1-(1-(6-(2-((2-(2,6-dioxopiperidin-3-yl)-1,3-dioxoisoindolin-4-yl)oxy)acetamido)hexyl)piperidin-4-yl)-1H-pyrazol-4-yl)pyrazine-2-carboxylate]: 53.05%, 40.54%, 91.87%, 68.81% and 0.78 nM.
